Measurements taken from ChEMBL document CHEMBL3045483, “Chalcones as promising pesticidal agents against diamondback moth (Plutella xylostella): microwave-assisted synthesis and structureactivity relationship” (Med Chem Res, 2012).
In brackets after ≈: the same amount, converted by molar mass.

Assays:
[1] = Aqueous solubility of the compound; format: physicochemical; settings: buffer
Plutella xylostella [2] = experiment: Insecticidal activity against second-instar larvae Plutella xylostella (diamondback moth) in compound treated cabbage leaves assessed as mortality at 5000 ug/mL after 48 hr by leaf dip method; format: functional; settings: foliar
Plutella xylostella [3] = experiment: Insecticidal activity against second-instar larvae Plutella xylostella (diamondback moth) in compound treated cabbage leaves assessed as mortality at 10000 ug/mL after 48 hr by leaf dip method; format: functional; settings: foliar
Plutella xylostella [4] = experiment: Insecticidal activity against second-instar larvae Plutella xylostella (diamondback moth) in compound treated cabbage leaves assessed as mortality after 48 hr by leaf dip method; format: functional; settings: foliar

SMILES	solubility [1]	mortality at 5000 µg/mL (Plutella xylostella [2]) [%]	mortality at 10000 µg/mL (Plutella xylostella [3]) [%]	LC50 (Plutella xylostella [4]) [µg/mL]
COc1cccc(C(=O)/C=C/c2ccc(Cl)c(Cl)c2)c1	Insoluble			
COc1ccc(/C=C/C(C)=O)cc1		26.6	30	
COc1cc(OC)c(OC)cc1/C=C/C(C)=O		0	26.6	
O=C(/C=C/c1cccs1)c1ccc([N+](=O)[O-])cc1		23.3	30	
COc1ccc(C(=O)/C=C/c2ccc(Cl)c(Cl)c2)cc1OC		46.6	68	
C=CCOc1ccc(C(=O)/C=C/c2ccc(Cl)cc2)cc1		100	100	268 (≈ 898 µM)
O=C(/C=C/c1ccco1)c1ccc([N+](=O)[O-])cc1		16.6	23	
O=C(/C=C/c1ccc(Cl)cc1)c1ccc2c(c1)OCO2		13.3	23	
COc1ccc(/C=C/C(=O)c2ccc(Cl)cc2)cc1		26.6	50	
O=C(/C=C/c1ccc(Cl)cc1)c1ccc(Cl)cc1 [4',4-DICHLOROCHALCONE]		100	100	170 (≈ 614 µM)
O=C(/C=C/c1ccc(Cl)c(Cl)c1)c1ccc(Cl)c(Cl)c1		46.6	73.3	
COc1ccc(C(=O)/C=C/c2cccc3ccccc23)cc1	Insoluble			
COc1ccc(C(=O)/C=C/c2ccc(F)cc2)cc1		26.6	33.3	
COc1cc(C(=O)/C=C/c2ccc(Cl)c(Cl)c2)cc(OC)c1OC	Insoluble			
COc1ccc(C(=O)/C=C/c2ccc(Cl)cc2Cl)cc1		100	100	278 (≈ 907 µM)
O=C(/C=C/c1ccc(Cl)c(Cl)c1)c1ccc(Cl)cc1		60	97.7	
COc1ccc(/C=C/C(=O)c2ccc(OC)cc2)cc1 [4,4'-DIMETHOXYCHALCONE]		16.6	26.6	
COc1ccc(C(=O)/C=C/c2ccc(Cl)c(Cl)c2)cc1		100	100	288 (≈ 936 µM)
O=C(/C=C/c1ccc(Cl)cc1)c1ccc(O)cc1		100	100	871 (≈ 3370 µM)
COc1ccc(C(=O)/C=C/c2ccc(Br)cc2)cc1		3.3	10	
COc1cc(/C=C/C(C)=O)ccc1O [DEHYDROZINGERONE]	Insoluble			
O=C(/C=C/c1ccc(Cl)cc1)c1ccc([N+](=O)[O-])cc1		20	26.6	
COc1ccc(C(=O)/C=C/c2ccc(Cl)cc2)cc1		100	100	356 (≈ 1310 µM)
COc1ccccc1C(=O)/C=C/c1ccc(Cl)c(Cl)c1		50	63.3	
Cc1ccc(C(=O)/C=C/c2ccc(Cl)c(Cl)c2)cc1		60	83.3	
CC1(C)[C@H](C(=O)O[C@H](C#N)c2cccc(Oc3ccccc3)c2)[C@@H]1C=C(Br)Br [DELTAMETHRIN]				6.25 (≈ 12.4 µM)
